We go through 15 compounds from ChEMBL document CHEMBL1127350, “The squalestatins: novel inhibitors of squalene synthase. Enzyme inhibitory activities and in vivo evaluation of C1-modified analogues” (J Med Chem, 1994).

pIC50: −log10 of the molar value. In brackets after ≈: the same amount, converted by molar mass. Several values for one entry are separate records, joined by “and”; a condition that tells them apart may be missing. Equal values may be shown once.

One may read the MIC as the least concentration at which growth counts as inhibited. In general, pIC50 refers to the negative decadic logarithm of the IC50, by convention in mol/L. A higher pIC50 goes with a low IC50. For orientation: ED50 means the dose that gives a 50% effect, or the effect in half of the subjects. Low readings indicate greater potency, high ones weaker potency.

For one assay, the system named is Aspergillus niger. As to the kind of experiment: Compound was tested for an antifungal whole cell assay to obtain minimum inhibitory concentration against Aspergillus niger 48238. Type of assay: functional.
Another assay concerns Cryptococcus neoformans. Briefly: Compound was tested for an antifungal whole cell assay to obtain minimum inhibitory concentration against Cryptococcus neoformans 2867E. Format: functional.
For another assay, the target named is T1, Squalene synthase (Rattus norvegicus, UniProt Q02769).
T1 sequence (Q02769 whole entry): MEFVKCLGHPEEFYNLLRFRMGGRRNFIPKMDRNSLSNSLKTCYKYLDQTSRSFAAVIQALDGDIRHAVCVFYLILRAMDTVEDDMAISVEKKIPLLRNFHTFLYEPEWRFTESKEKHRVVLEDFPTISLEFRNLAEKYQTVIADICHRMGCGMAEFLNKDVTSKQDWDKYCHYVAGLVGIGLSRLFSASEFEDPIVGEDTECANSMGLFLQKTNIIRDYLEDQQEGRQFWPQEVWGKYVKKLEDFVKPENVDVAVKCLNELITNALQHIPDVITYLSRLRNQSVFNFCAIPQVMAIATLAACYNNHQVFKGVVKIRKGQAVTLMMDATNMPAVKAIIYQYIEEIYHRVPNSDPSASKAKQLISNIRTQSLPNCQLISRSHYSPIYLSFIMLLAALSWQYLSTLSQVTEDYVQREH
As to the kind of experiment: Inhibition of juvenile male rat liver microsomal squalene synthase. (In general: Microsomes from liver hold many membrane-bound enzymes, among them those of drug oxidation.)

A further assay has as its system Candida albicans. As to the kind of experiment: Compound was tested for an antifungal whole cell assay to obtain minimum inhibitory concentration against Candida albicans C316. Format: functional.
Assay [1] can be described thus: Compound was tested on serum cholesterol levels in marmosets after 7 days at 1(mg/kg/day) intravenous administration in 6 animals. Format: functional, Callitrichinae.
Assay [2] in a line: Compound was tested on serum cholesterol levels in marmosets after 2 days at intravenous 1 (mg/kg) dose in 6 animals. Type of assay: functional, Callitrichinae.
Assay [3] is described as follows: Compound was tested on serum cholesterol levels in marmosets after 3 days at intravenous 0.33 (mg/kg) dose in 6 animals. Format: functional, Callitrichinae.
Assay [4] in a line: Compound was tested on serum cholesterol levels in marmosets after 7 days at 1(mg/kg/day) intravenous administration in 8 animals. Format: functional, Callitrichinae.
Assay [5] in a line: (§1) Compound was tested on serum cholesterol levels in marmosets after 7 days at intravenous 0.11 (mg/kg) dose in 6 animals. Type of assay: functional, Callitrichinae.
The next assay has as its system Rattus norvegicus. Briefly: Tested for inhibition of cholesterol biosynthesis by intravenous administration to rats. Format: functional.
A short description of assay [6]: as §1. Type of assay: functional, Callitrichinae. The source holds these as a separate data set.
Where [7] appears, read: Aspergillus niger, read-out: MIC.
Where [8] appears, read: Cryptococcus neoformans, read-out: MIC.
[9] abbreviates: Candida albicans, read-out: MIC.

As for `CC[C@H](C)C[C@H](C)/C=C/C(=O)O[C@@H]1[C@@H](O)[C@@]2(C/C=C(\C)CC(C)Cc3ccccc3)O[C@H](C(=O)O)[C@@](O)(C(=O)O)[C@]1(C(=O)O)O2` (single isomer, unassigned), the MIC with Aspergillus niger (setting [7]) is 31 µg/mL (≈ 49 µM); with Cryptococcus neoformans (setting [8]), 2 µg/mL (≈ 3.16 µM); with Candida albicans (setting [9]) it was 31 µg/mL (≈ 49 µM). For the same compound, the pIC50 on Squalene synthase is 7.19.
With `C/C(=C\[C@@H](C)Cc1ccccc1)CC[C@]12O[C@H](C(=O)O)[C@@](O)(C(=O)O)[C@](C(=O)O)(O1)[C@H](O)[C@H]2O`, the pIC50 at Squalene synthase is 6.70.
In the case of `CC[C@H](C)C[C@H](C)CCC(=O)O[C@@H]1[C@@H](O)[C@@]2(CCC(C)[C@H](O)[C@@H](C)Cc3ccccc3)O[C@H](C(=O)O)[C@@](O)(C(=O)O)[C@]1(C(=O)O)O2` (stereo not given in full), the MIC was determined as 31 µg/mL (≈ 47.5 µM) in the assay on Aspergillus niger (setting [7]), 8 µg/mL (≈ 12.3 µM) with Cryptococcus neoformans (setting [8]) and 125 µg/mL (≈ 192 µM) in the assay with Candida albicans (setting [9]).
`C=C(CC[C@]12O[C@H](C(=O)O)[C@@](O)(C(=O)O)[C@](C(=O)O)(O1)[C@H](OC(=O)/C=C/[C@@H](C)C[C@@H](C)CC)[C@H]2O)[C@H](O)[C@@H](C)Cc1ccccc1`: the MIC is 16 µg/mL (≈ 24.7 µM) in the assay on Aspergillus niger (setting [7]), 1 µg/mL (≈ 1.54 µM) with Cryptococcus neoformans (setting [8]) and 125 µg/mL (≈ 193 µM) in the assay on Candida albicans (setting [9]). In assay [1], the Cholesterol reduction was found to be 59%.
With `C=C(CC[C@]12O[C@H](C(=O)O)[C@@](O)(C(=O)O)[C@](C(=O)O)(O1)[C@H](OC(=O)CC[C@@H](C)C[C@@H](C)CC)[C@H]2O)[C@H](OC(C)=O)[C@@H](C)Cc1ccccc1`, the MIC turned out to be 1 µg/mL (≈ 1.44 µM) with Aspergillus niger (setting [7]), 0.1 µg/mL (≈ 0.144 µM) in the assay with Cryptococcus neoformans (setting [8]) and 8 µg/mL (≈ 11.5 µM) in the assay on Candida albicans (setting [9]). In addition, the Cholesterol reduction in assay [1] is given as 72%. Besides, the pIC50 at Squalene synthase is 7.89.
Turning to `CC(=O)O[C@@H](C(C)CC[C@]12O[C@H](C(=O)O)[C@@](O)(C(=O)O)[C@](C(=O)O)(O1)[C@H](O)[C@H]2O)[C@@H](C)Cc1ccccc1` (stereo not given in full), the MIC in the assay with Aspergillus niger (setting [7]), in the assay on Cryptococcus neoformans (setting [8]) and in the assay with Candida albicans (setting [9]) was 125 µg/mL (≈ 231 µM) throughout.
Consider `C=C(CC[C@]12O[C@H](C(=O)O)[C@@](O)(C(=O)O)[C@](C(=O)O)(O1)[C@H](OC(=O)/C=C/[C@@H](C)C[C@@H](C)CC)[C@H]2O)[C@H](OC(C)=O)[C@@H](C)Cc1ccccc1`, for which the MIC in the assay with Aspergillus niger (setting [7]) came out at 16 µg/mL (≈ 23.2 µM); with Cryptococcus neoformans (setting [8]) it was 0.5 µg/mL (≈ 0.724 µM); in the assay on Candida albicans (setting [9]), 8 µg/mL (≈ 11.6 µM). Further, the Cholesterol reduction in assay [2] is 47% and 53% and 60%; in assay [3], 53% and 63% and 62%; in assay [4], 86%; in [5], 37% and 41%; in assay [6] it was 39%. In the assay with Rattus norvegicus, this compound registered an ED50 of 0.1 mg/kg.
On to `CC(CC[C@]12O[C@H](C(=O)O)[C@@](O)(C(=O)O)[C@](C(=O)O)(O1)[C@H](O)[C@H]2O)C[C@@H](C)Cc1ccccc1` (stereo not given in full), for which the MIC with Aspergillus niger (setting [7]), in the assay on Cryptococcus neoformans (setting [8]) and in the assay on Candida albicans (setting [9]) was 125 µg/mL (≈ 259 µM) each time. The pIC50 against Squalene synthase was 6.38.
As for `C=C(CC[C@]12O[C@H](C(=O)O)[C@@](O)(C(=O)O)[C@](C(=O)O)(O1)[C@H](O)[C@H]2O)[C@H](OC(C)=O)[C@@H](C)Cc1ccccc1`, the MIC in the assay with Aspergillus niger (setting [7]), in the assay with Cryptococcus neoformans (setting [8]) and in the assay with Candida albicans (setting [9]) was more than 125 µg/mL in each case. For the same compound, the Cholesterol reduction in assay [1] is 56%.
For the compound `CC[C@H](C)C[C@H](C)CCC(=O)O[C@@H]1[C@@H](O)[C@@]2(CCC(C)[C@H](OC(C)=O)[C@@H](C)Cc3ccccc3)O[C@H](C(=O)O)[C@@](O)(C(=O)O)[C@]1(C(=O)O)O2` (stereo in doubt; 2d), the MIC in the assay on Aspergillus niger was found to be 8 µg/mL (≈ 11.5 µM); against Cryptococcus neoformans, 0.5 µg/mL (≈ 0.72 µM); with Candida albicans, 16 µg/mL (≈ 23 µM). On Squalene synthase, this compound gave a pIC50 of 8.52.
Take `C=C(CC[C@]12O[C@H](C(=O)O)[C@@](O)(C(=O)O)[C@](C(=O)O)(O1)[C@H](O)[C@H]2O)[C@H](O)[C@@H](C)Cc1ccccc1`: the MIC with Aspergillus niger (setting [7]), with Cryptococcus neoformans (setting [8]) and in the assay with Candida albicans (setting [9]) was 62 µg/mL (≈ 125 µM) each time. Besides, the pIC50 at Squalene synthase was 6.60.
On to `CC[C@H](C)C[C@H](C)CCC(=O)O[C@@H]1[C@@H](O)[C@@]2(CCC(C)[C@H](OC(C)=O)[C@@H](C)Cc3ccccc3)O[C@H](C(=O)O)[C@@](O)(C(=O)O)[C@]1(C(=O)O)O2` (stereo in doubt; 2f), for which the MIC in the assay on Aspergillus niger was found to be 125 µg/mL (≈ 180 µM); against Cryptococcus neoformans, 4 µg/mL (≈ 5.76 µM); in the assay on Candida albicans, 125 µg/mL (≈ 180 µM). The compound also had a pIC50 at Squalene synthase of 6.78.
As for `CC[C@H](C)C[C@H](C)/C=C/C(=O)O[C@@H]1[C@@H](O)[C@@]2(CC/C(C)=C/[C@@H](C)Cc3ccccc3)O[C@H](C(=O)O)[C@@](O)(C(=O)O)[C@]1(C(=O)O)O2`, the results for the minimum inhibitory concentration (MIC) in the assay on Aspergillus niger (setting [7]), in the assay on Cryptococcus neoformans (setting [8]) and with Candida albicans (setting [9]) were 16 µg/mL (≈ 25.3 µM), 4 µg/mL (≈ 6.32 µM) and 31 µg/mL (≈ 49 µM), respectively. This compound gave a pIC50 at Squalene synthase of 7.49.
On to `CC[C@H](C)C[C@H](C)CCC(=O)O[C@@H]1[C@@H](O)[C@@]2(CCC(C)C[C@@H](C)Cc3ccccc3)O[C@H](C(=O)O)[C@@](O)(C(=O)O)[C@]1(C(=O)O)O2` (stereo not given in full), for which the MIC in the assay on Aspergillus niger (setting [7]) was determined as 16 µg/mL (≈ 25.1 µM); in the assay on Cryptococcus neoformans (setting [8]), 1 µg/mL (≈ 1.57 µM); in the assay with Candida albicans (setting [9]), 31 µg/mL (≈ 48.7 µM).
Turning to `CC[C@H](C)C[C@H](C)CCC(=O)O[C@@H]1[C@@H](O)[C@@]2(C/C=C(\C)[C@H](OC(C)=O)[C@@H](C)Cc3ccccc3)O[C@H](C(=O)O)[C@@](O)(C(=O)O)[C@]1(C(=O)O)O2`, the MIC with Aspergillus niger (setting [7]) came out at 31 µg/mL (≈ 44.7 µM); in the assay on Cryptococcus neoformans (setting [8]) it was 8 µg/mL (≈ 11.5 µM); in the assay on Candida albicans (setting [9]), 125 µg/mL (≈ 180 µM). For the same compound, the pIC50 against Squalene synthase was 7.66.
